According to patent US10906884B2, “Benzodiazepine derivatives as CCK2/gastrin receptor antagonists” (Trio Medicines Ltd, priority 2014, dated 2021):
Converted amounts (≈) assume the structure as drawn. Read-outs that look alike come from different tables or passages of the source.

Tests used:
[1] = Aqueous solubility study in Britton-Robinson's buffer (HPLC-UV); assay type: physicochemical; conditions: ambient temperature overnight; for solubility: thermodynamic from solid
Method: The test compound (2.5 mg of solid; n=1) was weighed in a clear glass vial and Britton-Robinson's buffer (0.5 mL) was added (pH 2.01, pH 3.06, pH 4.06, pH 5.08, pH 5.99, pH 6.98, and pH 8.16). The solution was agitated at ambient temperature overnight using a vial roller system, and then filtered (0.45 μm pore size; without pre-saturation). Two aliquots (50 μL) were sampled from the filtrate and diluted with one volume of 0.1 N hydrochloric acid and methanol (1:1 v/v) before analysis by HPLC-UV. A standard was prepared in DMSO at 10 mg/mL (n=1) which was then diluted 10-fold in 0.1 N hydrochloric acid and methanol (1:1 v/v) to give a 1 mg/mL solution. The concentration of test compound in the filtrate was quantified relative to the concentration standard.
Analysis was done using a gradient HPLC-UV system with a total cycle time of 6 min. The UV detection between 220 nm and 300 nm was done using a photodiode array detector.
The values given in the table above are for crystalline YF476 and (TR2-A) and amorphous (TR1).

[2] = Pharmacokinetics in healthy subjects, single oral dose, API in capsule; conditions: human, in vivo
Method: In an initial study, healthy volunteers took a single oral dose of 100 mg (TR2) as an active pharmaceutical ingredient (API) in a capsule. Plasma concentrations were measured.
In further clinical studies, healthy volunteers (n=8) took single oral doses of 5, 15, 50 and 100 mg (TR2) as an active pharmaceutical ingredient (API) in a capsule. (Capsule formulation TR2 powder (API) in a hard gelatin capsule, no excipients, no processing). Plasma concentrations were measured.
Healthy volunteers (n=8) took single oral doses of 5, 15, 25 and 50 mg (TR2-A) as API in a capsule (TR2-A (crystalline) in hard gelatin capsule with no excipient, no processing of the API). Plasma concentrations of (TR2) and (TR2-A) were measured. The area under the curve of plasma concentrations of (TR2) after a single oral dose of 50 mg of (TR2-A) API (AUC0-24 h=212.5) was about the same as that observed for a similar formulation of a single oral dose of (TR2) 100 mg (AUC0-24 h=241.5).

CCK1 (human) = biological target: T1, CCK1 (human) (Homo sapiens, UniProt P32238); assay: CCK1 receptor functional assay (antagonist effect, cAMP, HTRF); assay type: cell-based; conditions: stimulus CCK-8s 300 nM, 10 min 37° C., CHO cells
T1 construct: expressed in transfected cells; host or cells: CHO cells
T1 sequence (P32238 1-428): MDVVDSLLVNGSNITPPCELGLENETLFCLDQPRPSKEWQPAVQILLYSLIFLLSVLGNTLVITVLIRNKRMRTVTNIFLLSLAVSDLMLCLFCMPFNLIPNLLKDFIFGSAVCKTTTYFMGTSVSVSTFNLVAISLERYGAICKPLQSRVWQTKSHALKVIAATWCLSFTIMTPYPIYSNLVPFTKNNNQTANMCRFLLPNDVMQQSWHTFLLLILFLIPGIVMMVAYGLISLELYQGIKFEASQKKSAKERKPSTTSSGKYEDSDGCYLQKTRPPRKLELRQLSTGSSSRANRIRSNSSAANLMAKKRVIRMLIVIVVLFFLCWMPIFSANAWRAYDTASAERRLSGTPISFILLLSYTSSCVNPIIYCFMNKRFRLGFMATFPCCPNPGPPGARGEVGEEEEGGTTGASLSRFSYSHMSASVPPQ
From the text: (§1) (TR2) and (TR3) were compared with YF476 and YM022 in CCK1 and CCK2 receptor functional assays with the following assay criteria.
(§2) The potency of the antagonists is expressed as IC50, the concentration of antagonist that causes a half-maximum inhibition of the control agonist response. The affinity of the antagonist for the receptor is expressed as KB, the concentration of antagonist, which would occupy 50% of the receptors at equilibrium.

[3] = test system: AGSGR cells (gastric adenocarcinoma cell line transfected with human gastrin/CCK2 receptor gene); assay: Sulphorhodamine-B (SRB) proliferation assay, G17-treated cells; assay type: cell-based; conditions: compound 100 nM, G17 10 nM
Method: The potency of (TR2) and (TR3) was tested in a sulphorhodamine-B (SRB) proliferation assay in a human gastric adenocarcinoma cell line stably transfected with the human gastrin/CCK2 receptor gene (AGSGR). SRB is a fluorescent dye that binds to proteins, so cells with a high rate of protein synthesis (proliferative cells) will show high levels of fluorescence in the SRB assay. […] (TR2) and (TR3) were compared with the positive controls YF476 and YM022.

[4] = test system: pentagastrin-stimulated gastric acid secretion; assay: Pentagastrin-stimulated gastric acid secretion in conscious rats with a chronic gastric fistula; assay type: in vivo; conditions: Rattus norvegicus, sc; subcutaneous injection, conscious rats; read-out: ED50, inhibition of pentagastrin-stimulated gastric acid secretion
Method: The effect of subcutaneous injections of YF476, (TR2) and (TR3) on pentagastrin-stimulated gastric acid secretion was tested in conscious rats with a chronic gastric fistula.

[5] = YF476 serum concentrations and bioavailability in healthy subjects (background); assay type: in vivo, human
From the text: Bioavailability can be improved by preparing and administering a formulation of amorphous YF476, but this requires stabilisation such as in the form of a solid dispersion on hydroxypropyl methyl cellulose by spray-drying. Even with this processing, bioavailability of YF476 was still low. […] However, it would be beneficial to provide a CCK2/gastrin receptor antagonist where administration with food is not required.

CCK2 (human) [6] = biological target: T2, CCK2 (human) (Homo sapiens, UniProt P32239); conditions: Semple et al. 1997; cited from earlier work
T2 sequence (P32239 1-447): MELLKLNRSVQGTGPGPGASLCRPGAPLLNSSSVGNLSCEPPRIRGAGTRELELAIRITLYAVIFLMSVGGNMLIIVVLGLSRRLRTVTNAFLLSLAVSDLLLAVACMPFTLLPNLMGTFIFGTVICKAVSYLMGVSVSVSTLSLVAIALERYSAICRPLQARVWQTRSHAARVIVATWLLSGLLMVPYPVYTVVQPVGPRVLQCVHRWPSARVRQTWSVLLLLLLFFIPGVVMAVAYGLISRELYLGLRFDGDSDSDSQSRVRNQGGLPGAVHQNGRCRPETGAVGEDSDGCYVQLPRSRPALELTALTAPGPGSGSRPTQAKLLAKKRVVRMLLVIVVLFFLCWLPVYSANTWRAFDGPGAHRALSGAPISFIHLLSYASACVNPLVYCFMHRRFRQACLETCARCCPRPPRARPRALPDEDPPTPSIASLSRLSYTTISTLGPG

CCK2 (human) [7] = biological target: T2, CCK2 (human); assay: CCK2 receptor functional assay (antagonist effect, cAMP, HTRF); assay type: cell-based; design: expressed in transfected cells; host or cells: CHO cells
From the text: as §1, §2

rat brain CCK2 receptors = biological target: T3, rat brain CCK2 receptors (Rattus norvegicus, UniProt P30553); conditions: cited from earlier work
T3 construct: host or cells: rat brain
T3 sequence (P30553 1-452): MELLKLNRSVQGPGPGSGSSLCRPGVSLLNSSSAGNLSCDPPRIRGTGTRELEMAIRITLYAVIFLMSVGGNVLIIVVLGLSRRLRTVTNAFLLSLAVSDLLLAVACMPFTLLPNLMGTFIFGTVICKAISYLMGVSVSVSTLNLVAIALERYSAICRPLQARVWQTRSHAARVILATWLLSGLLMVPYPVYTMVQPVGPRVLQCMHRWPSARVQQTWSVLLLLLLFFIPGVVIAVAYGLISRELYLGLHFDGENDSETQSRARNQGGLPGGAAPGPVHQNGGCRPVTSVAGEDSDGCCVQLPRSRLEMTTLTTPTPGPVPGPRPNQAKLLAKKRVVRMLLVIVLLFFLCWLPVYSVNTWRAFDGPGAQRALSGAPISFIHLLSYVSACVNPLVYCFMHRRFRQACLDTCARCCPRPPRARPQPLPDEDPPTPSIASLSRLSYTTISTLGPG

[8] = cited from earlier work
[9] = aqueous buffer, pH 2.01, Britton-Robinson's buffer
[10] = aqueous buffer, pH 3.06, Britton-Robinson's buffer
[11] = aqueous buffer, pH 4.06, Britton-Robinson's buffer
[12] = aqueous buffer, pH 5.08, Britton-Robinson's buffer
[13] = aqueous buffer, pH 5.99, Britton-Robinson's buffer
[14] = aqueous buffer, pH 6.98, Britton-Robinson's buffer
[15] = aqueous buffer, pH 8.16, Britton-Robinson's buffer
[16] = pH 2.01, Britton-Robinson's buffer
[17] = pH 3.06, Britton-Robinson's buffer
[18] = pH 4.06, Britton-Robinson's buffer
[19] = pH 5.08, Britton-Robinson's buffer
[20] = pH 5.99, Britton-Robinson's buffer
[21] = pH 6.98, Britton-Robinson's buffer
[22] = pH 8.16, Britton-Robinson's buffer

Compound | solubility [1, 9] | solubility [1, 10] | solubility [1, 11] | solubility [1, 12] | solubility [1, 13] | solubility [1, 14] | solubility [1, 15] | Aqueous solubility [1, 16] | Aqueous solubility [1, 17] | Aqueous solubility [1, 18] | Aqueous solubility [1, 19] | Aqueous solubility [1, 20] | Aqueous solubility [1, 21] | Aqueous solubility [1, 22] | Inhibition of the anti-proliferative effects of G17 [3] | also measured
CNc1cccc(NC(=O)NC2N=C(c3ccccn3)c3ccccc3N(CC(=O)C(C)(C)CO)C2=O)c1 (racemic) [TR1, 1-[1-(4-Hydroxy-3,3-dimethyl-2-oxo-butyl)-2-oxo-5-pyridin-2-yl-2,3-dihydro-1H-1,4-benzodiazepin-3-yl]-3-(3-methylamino-phenyl)-urea] | 5 mg/mL (≈ 9720 µM) | 0.645 mg/mL (≈ 1250 µM) | 0.0582 mg/mL (≈ 113 µM) | 0.0098 mg/mL (≈ 19 µM) | 0.0116 mg/mL (≈ 22.5 µM) | 0.00584 mg/mL (≈ 11.3 µM) | 0.00781 mg/mL (≈ 15.2 µM) |  |  |  |  |  |  |  |  | 
CNc1cccc(NC(=O)N[C@@H]2N=C(c3ccccn3)c3ccccc3N(CC(=O)C(C)(C)COC(C)=O)C2=O)c1 [TR2-A amorphous] |  |  |  |  |  |  |  | 5 mg/mL | 0.683 mg/mL | 0.282 mg/mL | 0.128 mg/mL | 0.0534 mg/mL | 0.043 mg/mL | 0.0402 mg/mL |  | 
CNc1cccc(NC(=O)N[C@@H]2N=C(c3ccccn3)c3ccccc3N(CC(=O)C(C)(C)COC(C)=O)C2=O)c1 [TR2-A crystalline] |  |  |  |  |  |  |  | 4.19 mg/mL | 0.73 mg/mL | 0.218 mg/mL | 0.056 mg/mL | 0.0472 mg/mL | 0.051 mg/mL | 0.0454 mg/mL |  | 
CNc1cccc(NC(=O)N[C@@H]2N=C(c3ccccn3)c3ccccc3N(CC(=O)C(C)(C)COC(C)=O)C2=O)c1 [TR2-A, (R)-1-[1-(4-Acetoxy-3,3-dimethyl-2-oxo-butyl)-2-oxo-5-pyridin-2-yl-2,3-dihydro-1H-benzo[e][1,4]diazepin-3-yl]-3-(3-methylamino-phenyl)-urea] |  |  |  |  |  |  |  |  |  |  | 0.056 mg/mL |  |  |  |  | solubility ([1]; pH 2.01, aqueous buffer, pH 2.01, Britton-Robinson's buffer): 4.19 mg/mL (≈ 7530 µM); solubility ([1]; pH 3.06, aqueous buffer, pH 3.06, Britton-Robinson's buffer): 0.73 mg/mL (≈ 1310 µM); solubility ([1]; pH 4.06, aqueous buffer, pH 4.06, Britton-Robinson's buffer): 0.218 mg/mL (≈ 392 µM); solubility ([1]; pH 5.99, aqueous buffer, pH 5.99, Britton-Robinson's buffer): 0.0472 mg/mL (≈ 84.8 µM); solubility ([1]; pH 6.98, aqueous buffer, pH 6.98, Britton-Robinson's buffer): 0.051 mg/mL (≈ 91.6 µM); solubility ([1]; pH 8.16, aqueous buffer, pH 8.16, Britton-Robinson's buffer): 0.0454 mg/mL (≈ 81.6 µM); AUC(0-t) ([2]; after single oral doses of (TR2-A), analyte TR2-A, read-out: AUC0-24 h of plasma concentrations of (TR2-A)): < 0.01 µg·h/mL
CNc1cccc(NC(=O)N[C@@H]2N=C(c3ccccn3)c3ccccc3N(CC(=O)C(C)(C)C)C2=O)c1 [YF476, reference compound] | 2.65 mg/mL (≈ 5320 µM) | 0.0997 mg/mL (≈ 200 µM) | 0.0059 mg/mL (≈ 11.8 µM) | 0.0014 mg/mL (≈ 2.81 µM) | 0.0013 mg/mL (≈ 2.61 µM) | 0.0014 mg/mL (≈ 2.81 µM) | 0.0015 mg/mL (≈ 3.01 µM) |  |  |  |  |  |  |  | completely inhibited | IC50 (CCK1 (human)): 160 nM; ED50 [4]: 0.012 µmol/kg; AUC ([2]; po, 100 mg): 0.199 µg·h/mL; AUC(0-t) ([2]; po, 100 mg): 0.0813 µg·h/mL; Increase of bioavailability by food [5]: 1.6 fold; Serum concentrations ([5]; crystalline form): extremely low and very variable; More selective for CCK2 receptors than for CCK1 receptors (compared with YM022) (CCK2 (human) [6]): 5 fold; Selectivity IC50 (CCK1)/IC50 (CCK2) (CCK2 (human) [7]): 308; Selectivity KB (CCK1)/KB (CCK2) (CCK2 (human) [7]): 375; IC50 (CCK2 (human) [7]; stimulus CCK-8s 10 nM, 10 min 37° C., CHO cells, read-out: CCK2 IC50): 0.52 nM; Kb (CCK2 (human) [7]; stimulus CCK-8s 10 nM, 10 min 37° C., CHO cells, read-out: CCK2 KB): 0.064 nM
Cc1cccc(NC(=O)N[C@@H]2N=C(c3ccccc3)c3ccccc3N(CC(=O)c3ccccc3C)C2=O)c1 [YM022, reference compound] |  |  |  |  |  |  |  |  |  |  |  |  |  |  | completely inhibited | Affinity at rat brain CCK2 receptors (rat brain CCK2 receptors): subnanomolar; Affinity at rat brain CCK2 receptors relative to rat pancreatic CCK1 receptors (rat brain CCK2 receptors): more than two orders of magnitude higher; Aqueous solubility [8]: low; IC50 (CCK2 (human) [7]): 0.55 nM; Kb (CCK2 (human) [7]): 0.68 nM
